Test results from patent US20250387481A1, “PRE-TREATED T CELLS FOR USE AS A MEDICAMENT” (STICHTING HET NEDERLANDS KANKER INSTITUUT-ANTONI VAN …, priority 2022, published 2025).

Tested on: MMTV-PyMT organoids expressing OVA
Experiment: Co-culture of OT I T cells with MMTV-PyMT organoids expressing OVA (cleaved-caspase 3)
Format: cell-based, mouse
Settings: OT I T cells pre-treated with docetaxel vs control
Procedure: Experiments were approved by the Animal Welfare Committee of the Netherlands Cancer Institute and were performed in accordance with national guidelines. Mice were housed in individually ventilated cage (IVC) systems under specific pathogen-free conditions and received chow and water ad libitum. FVB/NRj females (Janvier), C57BL/6-Tg (TcraTcrb) 1100Mjb/J females (OT I mice, Jackson laboratory), and ROSA26mTmG FVB females (NKI) were used at 8-20 weeks of age at the time of fat pad injection of tumor organoids or spleen isolation.
For T cells isolated from mouse mammary tumors, T cells were directly co-cultured with tumor organoids after FACS isolation. For T cells isolated from the spleen, T cells were treated for 72 h with PBS or with docetaxel (docetaxel 10 nmol/L), in the presence or absence of an LCKi (10 μmol/L, Merck Millipore, Cat. No. 213743-31-8). To evaluate the docetaxel-specificity of our observations, T cells were treated with paclitaxel 10 nmol/L or carboplatin 50 μmol/L for 72 h. Subsequently, T cells were collected and washed 3 times in PBS to remove residual chemotherapy or LCKi.
Organoids were fixed in 4% paraformaldehyde in PBS for 20 min at room temperature, followed by permeabilization in 0.2% TritonX-100 in PBS for 15 min at room temperature. […]

CC(=O)O[C@@]12CO[C@@H]1C[C@H](O)[C@@]1(C)C(=O)[C@H](O)C3=C(C)[C@@H](OC(=O)[C@H](O)[C@@H](NC(=O)OC(C)(C)C)c4ccccc4)C[C@@](O)([C@@H](OC(=O)c4ccccc4)[C@H]21)C3(C)C [docetaxel]
cytotoxicity of OT I T cells (apoptosis in OVA+ organoids): further enhanced
